Measured values from patent US10219516B2, “Molecules having pesticidal utility, and intermediates, compositions, and processes, related thereto” (priority 2015, dated 2019).

Assays:
Type in all cases: in vivo
[1] = test system: Beet Armyworm (Spodoptera exigua, LAPHEG); experiment: Bioassay on Beet Armyworm (BAW), 128-well diet tray assay; conditions: Beet Armyworm, 128-well diet tray assay, read-out: BAW rating
Outline: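 Diet tray, 8 wells/compound; 50 μg/cm^2 applied to diet surface (90:10 acetone-water), dried. 1–5 L2 larvae/well; 25° C., 14:10 L:D, 5–7 d. Read-out: % mortality, mean of 8 wells.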

[2] = test system: Cabbage Looper (Trichoplusia ni, TRIPNI); experiment: Bioassay on Cabbage Looper (CL), 128-well diet tray assay; conditions: Trichoplusia ni; Cabbage Looper, 128-well diet tray assay; read-out: CL rating
Outline: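 Test molecule is dissolved in 90:10 acetone-water and applied at 50 μg/cm^2 onto artificial diet, then dried. One to five second-instar larvae go into each of eight wells. Trays, sealed but vented, stay at 25° C., 14:10 light-dark, five to seven days, after which mortality is averaged.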

[3] = test system: Yellow Fever Mosquito (Aedes aegypti, AEDSAE); experiment: Bioassay on Yellow Fever Mosquito (YFM), 96-well plate larval assay; conditions: Yellow Fever Mosquito, 96-well plate larval assay
Outline: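 Compound stocks at 4000 ppm in DMSO were diluted with 90:10 water/acetone, and 15 μL aliquots were dispensed into six replicate plates. About 1-day-old larvae in liver-powder water were added per well. Plates were covered and held at room temperature for 3 days before each well was scored for mortality.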

Row | SMILES | pest or weed control at 50 µg/cm2 [1] | pest or weed control at 50 µg/cm2 [2] | YFM rating [3]
1 | Nc1cc(F)cc(F)c1NC(=O)c1cc(NC(=O)[C@H]2[C@H](c3cc(Cl)cc(Cl)c3)C2(Cl)Cl)ccc1Cl [F406, N-(2-Amino-4,6-difluorophenyl)-2-chloro-5-((1R,3R)-2,2-dichloro-3-(3,5-dichlorophenyl)cyclopropane-1-carboxamido)benzamide] | 50 to 100% | 50 to 100% | A (80-100)
2 | Nc1cc(F)cc(F)c1NC(=O)c1cc(NC(=O)[C@H]2[C@H](c3ccc(Cl)c(Cl)c3)C2(Cl)Cl)ccc1Cl [F407, N-(2-amino-4,6-difluorophenyl)-2-chloro-5-((1R,3R)-2,2-dichloro-3-(3,4-dichlorophenyl)cyclopropane-1-carboxamido)benzamide] | 50 to 100% | 50 to 100% | A (80-100)
3 | Nc1cc(F)cc(F)c1NC(=O)c1cc(NC(=O)[C@H]2[C@H](c3cc(Cl)c(Cl)c(Cl)c3)C2(Cl)Cl)ccc1Cl [F408, N-(2-Amino-4,6-difluorophenyl)-2-chloro-5-((1R,3R)-2,2-dichloro-3-(3,4,5-trichlorophenyl)cyclopropane-1-carboxamido)benzamide] | 50 to 100% | 50 to 100% | A (80-100)
4 | Nc1cc(F)cc(F)c1NC(=O)c1cc(NC(=O)[C@H]2[C@H](c3ccc(F)c(Cl)c3)C2(Cl)Cl)ccc1Cl [F409, N-(2-Amino-4,6-difluorophenyl)-2-chloro-5-((1R,3R)-2,2-dichloro-3-(3-chloro-4-fluorophenyl)cyclopropane-1-carboxamido)benzamide] | 50 to 100% | 50 to 100% | A (80-100)
5 | O=C(Nc1cc(F)cc([N+](=O)[O-])c1)c1cc(NC(=O)[C@H]2[C@H](c3cc(Cl)c(Cl)c(Cl)c3)C2(Cl)Cl)ccc1Cl [F417, 2-Chloro-5-((1R,3R)-2,2-dichloro-3-(3,4,5-trichlorophenyl)cyclopropane-1-carboxamido)-N-(3-fluoro-5-nitrophenyl)benzamide] | 50 to 100% | 50 to 100% | A (80-100)
6 | O=C(Nc1cc(F)cc([N+](=O)[O-])c1)c1cc(NC(=O)[C@H]2[C@H](c3ccc(F)c(Cl)c3)C2(Cl)Cl)ccc1Cl [F418, 2-Chloro-5-((1R,3R)-2,2-dichloro-3-(3-chloro-4-fluorophenyl)cyclopropane-1-carboxamido)-N-(3-fluoro-5-nitrophenyl)benzamide] | 50 to 100% | 50 to 100% | A (80-100)
7 | Nc1cc(F)cc(NC(=O)c2cc(NC(=O)[C@H]3[C@H](c4cc(Cl)cc(Cl)c4)C3(Cl)Cl)ccc2Cl)c1 [F419, N-(3-Amino-5-fluorophenyl)-2-chloro-5-((1R,3R)-2,2-dichloro-3-(3,5-dichlorophenyl)cyclopropane-1-carboxamido)benzamide] | 50 to 100% | 50 to 100% | B (More than 0-Less than 80)
8 | Nc1c(F)cc(F)cc1NC(=O)c1cc(NC(=O)[C@H]2[C@H](c3ccc(F)c(Cl)c3)C2(Cl)Cl)ccc1Cl [F420, N-(2-Amino-3,5-difluorophenyl)-2-chloro-5-((1R,3R)-2,2-dichloro-3-(3-chloro-4-fluorophenyl)cyclopropane-1-carboxamido)benzamide] | 50 to 100% | 50 to 100% | A (80-100)
9 | Nc1ccc(F)cc1NC(=O)c1cc(NC(=O)[C@H]2[C@H](c3ccc(F)c(Cl)c3)C2(Cl)Cl)ccc1Cl [F421, N-(2-Amino-5-fluorophenyl)-2-chloro-5-((1R,3R)-2,2-dichloro-3-(3-chloro-4-fluorophenyl)cyclopropane-1-carboxamido)benzamide] | 50 to 100% | 50 to 100% | A (80-100)
10 | Nc1cccc(NC(=O)c2cc(NC(=O)[C@H]3[C@H](c4cc(Cl)cc(Cl)c4)C3(Cl)Cl)ccc2Cl)c1F [F426, N-(3-Amino-2-fluorophenyl)-2-chloro-5-((1R,3R)-2,2-dichloro-3-(3,5-dichlorophenyl)cyclopropane-1-carboxamido)benzamide] | 50 to 100% | 50 to 100% | A (80-100)
11 | Nc1ccc(F)c(NC(=O)c2cc(NC(=O)[C@H]3[C@H](c4cc(Cl)cc(Cl)c4)C3(Cl)Cl)ccc2Cl)c1 [F427, N-(5-Amino-2-fluorophenyl)-2-chloro-5-((1R,3R)-2,2-dichloro-3-(3,5-dichlorophenyl)cyclopropane-1-carboxamido)benzamide] | 50 to 100% | 50 to 100% | A (80-100)
12 | Nc1ccc(F)c(NC(=O)c2cc(NC(=O)[C@H]3[C@H](c4ccc(Cl)c(Cl)c4)C3(Cl)Cl)ccc2Cl)c1 [F428, N-(5-Amino-2-fluorophenyl)-2-chloro-5-((1R,3R)-2,2-dichloro-3-(3,4-dichlorophenyl)cyclopropane-1-carboxamido)benzamide] | 50 to 100% | 50 to 100% | A (80-100)
13 | Nc1ccc(F)c(NC(=O)c2cc(NC(=O)[C@H]3[C@H](c4cc(Cl)c(Cl)c(Cl)c4)C3(Cl)Cl)ccc2Cl)c1 [F429, N-(5-Amino-2-fluorophenyl)-2-chloro-5-((1R,3R)-2,2-dichloro-3-(3,4,5-trichlorophenyl)cyclopropane-1-carboxamido)benzamide] | 50 to 100% | 50 to 100% | A (80-100)
14 | Nc1ccc(F)c(NC(=O)c2cc(NC(=O)[C@H]3[C@H](c4ccc(F)c(Cl)c4)C3(Cl)Cl)ccc2Cl)c1 [F430, N-(5-Amino-2-fluorophenyl)-2-chloro-5-((1R,3R)-2,2-dichloro-3-(3-chloro-4-fluorophenyl)cyclopropane-1-carboxamido)benzamide] | 50 to 100% | 50 to 100% | A (80-100)
15 | Nc1cc(F)cc(NC(=O)c2cc(NC(=O)[C@H]3[C@H](c4ccc(Cl)c(Cl)c4)C3(Cl)Cl)ccc2Cl)c1 [F431, N-(3-Amino-5-fluorophenyl)-2-chloro-5-((1R,3R)-2,2-dichloro-3-(3,4-dichlorophenyl)cyclopropane-1-carboxamido)benzamide] | 50 to 100% | 50 to 100% | A (80-100)
16 | Nc1cc(F)cc(NC(=O)c2cc(NC(=O)[C@H]3[C@H](c4cc(Cl)c(Cl)c(Cl)c4)C3(Cl)Cl)ccc2Cl)c1 [F432, N-(3-Amino-5-fluorophenyl)-2-chloro-5-((1R,3R)-2,2-dichloro-3-(3,4,5-trichlorophenyl)cyclopropane-1-carboxamido)benzamide] | 50 to 100% | 50 to 100% | A (80-100)
17 | Nc1cc(F)cc(NC(=O)c2cc(NC(=O)[C@H]3[C@H](c4ccc(F)c(Cl)c4)C3(Cl)Cl)ccc2Cl)c1 [F433, N-(3-Amino-5-fluorophenyl)-2-chloro-5-((1R,3R)-2,2-dichloro-3-(3-chloro-4-fluorophenyl)cyclopropane-1-carboxamido)benzamide] | 50 to 100% | 50 to 100% | A (80-100)
18 | O=C(Nc1ccc2[nH]ccc2c1)c1cc(NC(=O)C2C(c3cc(Cl)cc(Cl)c3)C2(Cl)Cl)ccc1Cl (stereo not drawn) [F435, 2-Chloro-5-(trans)-2,2-dichloro-3-(3,5-dichlorophenyl)cyclopropane-1-carboxamido)-N-(1H-indol-5-yl)benzamide] | 50 to 100% | 50 to 100% | A (80-100)
19 | O=C(Nc1ccc2cccnc2c1)c1cc(NC(=O)C2C(c3cc(Cl)cc(Cl)c3)C2(Cl)Cl)ccc1Cl (stereo not drawn) [F436, 2-Chloro-5-(trans)-2,2-dichloro-3-(3,5-dichlorophenyl)cyclopropane-1-carboxamido)-N-(quinolin-7-yl)benzamide] | 50 to 100% | 50 to 100% | B (More than 0-Less than 80)
20 | O=C(Nc1cnc2cc[nH]c2c1)c1cc(NC(=O)C2C(c3cc(Cl)cc(Cl)c3)C2(Cl)Cl)ccc1Cl (stereo not drawn) [F437, 2-Chloro-5-(trans)-2,2-dichloro-3-(3,5-dichlorophenyl)cyclopropane-1-carboxamido)-N-(1H-pyrrolo[3,2-b]pyridin-6-yl)benzamide] | 50 to 100% | 50 to 100% | B (More than 0-Less than 80)
21 | O=C(Nc1nc2ccccc2s1)c1cc(NC(=O)C2C(c3cc(Cl)cc(Cl)c3)C2(Cl)Cl)ccc1Cl (stereo not drawn) [F441, N-(Benzo[d]thiazol-2-yl)-2-chloro-5-(trans)-2,2-dichloro-3-(3,5-dichlorophenyl)cyclopropane-1-carboxamido)benzamide] | 50 to 100% | 50 to 100% | B (More than 0-Less than 80)
22 | O=C(Nc1nc2cc(F)ccc2s1)c1cc(NC(=O)C2C(c3cc(Cl)cc(Cl)c3)C2(Cl)Cl)ccc1Cl (stereo not drawn) [F442, 2-Chloro-5-(trans)-2,2-dichloro-3-(3,5-dichlorophenyl)cyclopropane-1-carboxamido)-N-(5-fluorobenzo[d]thiazol-2-yl)benzamide] | 50 to 100% | 50 to 100% | B (More than 0-Less than 80)
